According to patent publication US6579708B1, “Human uridine kinase” (SmithKline Beecham Corporation, priority 2000, dated 2003):
Where two headings read alike, the source gives them in different places.

B1: Human Uridine Kinase: novel human UDK gene product expressed in E.coli from pET 16b, purified by Ni-NTA affinity chromatography (protein)
chain: MASAGGEDCESPAPEADRPHQRPFLIGVSGGTASGKSTVCEKIMELLGQNEVEQRQRKVVILSQDRFYKVLTAEQKAKALKGQYNFDHPDAFDNDLMHRTLKNIVEGKTVEVPTYDFVTHSRLPETTVVYPADVVLFEGILVFYSQEIRDMFHLRLFVDTDSDVRLSRRVLRDVRRGRDLEQILTQYTTFVKPAFEEFCLPTKKYADVIIPRGVDNMVAINLIVQHIQDILNGDICKWHRGGSNGRSYKRTFSEPGDHPG
modifications: His tag from pET16b; Human

Tests used:
[1] = tested on: uridine kinase; conditions: cited from earlier work
[2] = tested on: uridine kinase; conditions: cited from earlier work; remark: listed apart in the source
[3] = Characterization of recombinant His-tagged human uridine kinase expressed in E.coli; assay type: biochemical
Source text: The novel human UDK gene has been cloned into an expression vector pET 16b (Novagen) with a His tag at its NH2-terminus. The gene was expressed in E.coli and has been purified to >95% purity by Ni-NTA affinity chromatography.

| Molecule | Km ([1]; normal rat liver) [µM] | Km ([1]; rapidly growing hepatoma 3924A) [µM] | Km ([2]; normal ovary) [µM] | Km ([2]; ovarian carcinoma) [µM] | Optimum pH [3] | Specific Activity ([3]; purified enzyme, His tag at NH2-terminus) [nmol/min/mg protein] | enzymatic activity ([3]; with the His tag) |
| --- | --- | --- | --- | --- | --- | --- | --- |
| O=c1ccn([C@@H]2O[C@H](CO)[C@@H](O)[C@H]2O)c(=O)[nH]1 [uridine] | 5000 | 800 | 11500 | 500 | – | – | – |
| B1 | – | – | – | – | 9.0 | 678 | good enzymatic activity |
